Data published in patent publication US20240043427A1 (Gilead Sciences, Inc., priority 2020, published 2024).

Key:
CD73 [1] = molecular target: T1, CD73 (Homo sapiens (Human), UniProt P21589); assay type: biochemical; conditions: 1 mM NaH2PO4 in enzyme buffer, CD73 0.3 nM, AMP 15 uM
CD73 [2] = molecular target: T1, CD73; assay: MDA-MB-231 Cell Based CD73 Activity Assay (DMEM); conditions: MDA-MB-231-GFP cells, DMEM medium with 10% human plasma, 200 uM AMP

T1 sequence (P21589 27-574): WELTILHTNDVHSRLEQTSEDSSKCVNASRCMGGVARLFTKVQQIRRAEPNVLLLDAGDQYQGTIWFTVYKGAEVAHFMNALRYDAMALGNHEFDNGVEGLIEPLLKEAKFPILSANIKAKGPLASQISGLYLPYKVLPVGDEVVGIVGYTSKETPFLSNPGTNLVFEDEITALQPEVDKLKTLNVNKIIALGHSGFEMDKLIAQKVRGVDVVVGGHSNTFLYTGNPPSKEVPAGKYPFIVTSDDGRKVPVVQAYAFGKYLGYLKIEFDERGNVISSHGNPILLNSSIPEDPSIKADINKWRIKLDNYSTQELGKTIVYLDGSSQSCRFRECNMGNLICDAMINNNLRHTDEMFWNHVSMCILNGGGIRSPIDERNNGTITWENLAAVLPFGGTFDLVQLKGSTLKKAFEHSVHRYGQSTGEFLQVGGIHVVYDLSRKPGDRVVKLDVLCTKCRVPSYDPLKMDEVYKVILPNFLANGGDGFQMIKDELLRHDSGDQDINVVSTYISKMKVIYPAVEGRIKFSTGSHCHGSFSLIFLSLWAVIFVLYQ

| SMILES | IC50 (CD73 [1]) [nM] | EC50 (CD73 [2]) [nM] |
| --- | --- | --- |
| COC1(C(F)(F)F)CCN(c2cc(-c3c[nH]c(=O)[nH]c3=O)nn3ccnc23)C1 (centres unmarked) [Example 189, 5-[8-[3-methoxy-3-(trifluoromethyl)pyrrolidin-1-yl]imidazo[1,2-b]pyridazin-6-yl]-1H-pyrimidine-2,4-dione] | 18.1 | 49 |
| O=c1[nH]cc(-c2cc(N3CCC4(CC4)C3)c3nccn3n2)c(=O)[nH]1 [Example 190, 5-[8-(5-azaspiro[2.4]heptan-5-yl)imidazo[1,2-b]pyridazin-6-yl]-1H-pyrimidine-2,4-dione] | 3.05 | 12.8 |
| C[C@]1(F)CCN(c2cc(-c3c[nH]c(=O)[nH]c3=O)nn3ccnc23)C1 [Example 191, 5-[8-[(3S)-3-fluoro-3-methyl-pyrrolidin-1-yl]imidazo[1,2-b]pyridazin-6-yl]-1H-pyrimidine-2,4-dione] | 21.8 | 45.8 |
| C[C@@H]1CN(c2cc(-c3c[nH]c(=O)[nH]c3=O)nn3ccnc23)C[C@H]1C(F)(F)F [Example 193, 5-[8-[(3S,4S)-3-methyl-4-(trifluoromethyl)pyrrolidin-1-yl]imidazo[1,2-b]pyridazin-6-yl]-1H-pyrimidine-2,4-dione] | 151 | 682 |
| COc1ccc(C2CN(c3cc(-c4c[nH]c(=O)[nH]c4=O)nn4ccnc34)CC2(F)F)cc1 (centres unmarked) [Example 194, 5-[8-[3,3-difluoro-4-(4-methoxyphenyl)pyrrolidin-1-yl]imidazo[1,2-b]pyridazin-6-yl]-1H-pyrimidine-2,4-dione] | 3.32 | 469 |
| N#CC1(F)CCN(c2cc(-c3c[nH]c(=O)[nH]c3=O)nn3ccnc23)C1 (centres unmarked) [Example 195, 1-[6-(2,4-dioxo-1H-pyrimidin-5-yl)imidazo[1,2-b]pyridazin-8-yl]-3-fluoro-pyrrolidine-3-carbonitrile] | 62.9 | 218 |
| O=c1[nH]cc(-c2cc(N3CC[C@H](OC(F)(F)F)C3)c3nccn3n2)c(=O)[nH]1 [Example 196, 5-[8-[(3S)-3-(trifluoromethoxy)pyrrolidin-1-yl]imidazo[1,2-b]pyridazin-6-yl]-1H-pyrimidine-2,4-dione] | 98.6 | 243 |
| O=c1[nH]cc(-c2cc(N3C[C@H](OC(F)F)C(F)(F)C3)c3nccn3n2)c(=O)[nH]1 [Example 201, 5-[8-[(4S)-4-(difluoromethoxy)-3,3-difluoro-pyrrolidin-1-yl]imidazo[1,2-b]pyridazin-6-yl]-1H-pyrimidine-2,4-dione] | 1.11 | 6.39 |
| O=c1[nH]cc(-c2cc(N3CC(OC(F)F)C(F)(F)C3)c3nccn3n2)c(=O)[nH]1 (centres unmarked) [Example 202, 5-[8-[4-(difluoromethoxy)-3,3-difluoro-pyrrolidin-1-yl]imidazo[1,2-b]pyridazin-6-yl]-1H-pyrimidine-2,4-dione] | 1.04 | 4.25 |
| COc1ncc(-c2cc(N3CC(OCC(F)(F)F)C(F)(F)C3)c3nccn3n2)c(OC)n1 (centres unmarked) [Example 203, 8-[3,3-difluoro-4-(2,2,2-trifluoroethoxy)pyrrolidin-1-yl]-6-(2,4-dimethoxypyrimidin-5-yl)imidazo[1,2-b]pyridazine] | 3.03 | 10.3 |
| CN(C)C(=O)COC1CN(c2cc(-c3c[nH]c(=O)[nH]c3=O)nn3ccnc23)CC1(F)F (centres unmarked) [Example 204, 2-[1-[6-(2,4-dioxo-1H-pyrimidin-5-yl)imidazo[1,2-b]pyridazin-8-yl]-4,4-difluoro-pyrrolidin-3-yl]oxy-N,N-dimethyl-acetamide] | 1.63 | 9.31 |
| CC(=O)NC1CN(c2cc(-c3c[nH]c(=O)[nH]c3=O)nn3ccnc23)CC1(F)F (centres unmarked) [Example 205, N-[1-[6-(2,4-dioxo-1H-pyrimidin-5-yl)imidazo[1,2-b]pyridazin-8-yl]-4,4-difluoro-pyrrolidin-3-yl]acetamide] | 4.42 | 16 |
| O=C(NC1CN(c2cc(-c3c[nH]c(=O)[nH]c3=O)nn3ccnc23)CC1(F)F)OCC(F)(F)F (centres unmarked) [Example 206, 2,2,2-trifluoroethyl N-[1-[6-(2,4-dioxo-1H-pyrimidin-5-yl)imidazo[1,2-b]pyridazin-8-yl]-4,4-difluoro-pyrrolidin-3-yl]carbamate] | 4.97 | 28.7 |
| O=C(NC1CN(c2cc(-c3c[nH]c(=O)[nH]c3=O)nn3ccnc23)CC1(F)F)OCC1CC1 (centres unmarked) [Example 207, cyclopropylmethyl N-[1-[6-(2,4-dioxo-1H-pyrimidin-5-yl)imidazo[1,2-b]pyridazin-8-yl]-4,4-difluoro-pyrrolidin-3-yl]carbamate] | 6.05 | 20.3 |
| O=C(NC1CN(c2cc(-c3c[nH]c(=O)[nH]c3=O)nn3ccnc23)CC1(F)F)OCC(F)F (centres unmarked) [Example 208, 2,2-difluoroethyl N-[1-[6-(2,4-dioxo-1H-pyrimidin-5-yl)imidazo[1,2-b]pyridazin-8-yl]-4,4-difluoro-pyrrolidin-3-yl]carbamate] | 5.88 | 25.4 |
| O=C(NC1CN(c2cc(-c3c[nH]c(=O)[nH]c3=O)nn3ccnc23)CC1(F)F)c1ccccc1 (centres unmarked) [Example 209, N-[1-[6-(2,4-dioxo-1H-pyrimidin-5-yl)imidazo[1,2-b]pyridazin-8-yl]-4,4-difluoro-pyrrolidin-3-yl]benzamide] | 2.8 | 24.2 |

| SMILES | IC50 (CD73 [1]) [nM] | EC50 (CD73 [2]) [nM] |
| --- | --- | --- |
| O=C(NC1CN(c2cc(-c3c[nH]c(=O)[nH]c3=O)nn3ccnc23)CC1(F)F)c1ccc(C(F)(F)F)cc1 (centres unmarked) [Example 210, N-[1-[6-(2,4-dioxo-1H-pyrimidin-5-yl)imidazo[1,2-b]pyridazin-8-yl]-4,4-difluoro-pyrrolidin-3-yl]-4-(trifluoromethyl)benzamide] | 4.59 | 24.4 |
| O=C(NC1CN(c2cc(-c3c[nH]c(=O)[nH]c3=O)nn3ccnc23)CC1(F)F)c1ccc(C(F)(F)F)cn1 (centres unmarked) [Example 211, N-[1-[6-(2,4-dioxo-1H-pyrimidin-5-yl)imidazo[1,2-b]pyridazin-8-yl]-4,4-difluoro-pyrrolidin-3-yl]-5-(trifluoromethyl)pyridine-2-carboxamide] | 2.33 | 10.8 |
| O=c1[nH]cc(-c2cc([C@H]3C[C@@H]3c3ccc(C(F)F)cc3)n3nccc3n2)c(=O)[nH]1 [Example 215, 5-(7-((1S,2S)-2-(4-(difluoromethyl)phenyl)cyclopropyl)pyrazolo[1,5-a]pyrimidin-5-yl)pyrimidine-2,4(1H,3H)-dione] | 1.41 | 12.1 |
| CC1(C)CN(c2cc(-c3c[nH]c(=O)[nH]c3=O)nc3ccnn23)CC1(F)F [Example 216, 5-(7-(3,3-difluoro-4,4-dimethylpyrrolidin-1-yl)pyrazolo[1,5-a]pyrimidin-5-yl)pyrimidine-2,4(1H,3H)-dione] | 8.01 | 31.7 |
| CCc1cnn2c(N3CC(C)(C)C(F)(F)C3)cc(-c3c[nH]c(=O)[nH]c3=O)nc12 [Example 217, 5-(7-(3,3-difluoro-4,4-dimethylpyrrolidin-1-yl)-3-ethylpyrazolo[1,5-a]pyrimidin-5-yl)pyrimidine-2,4(1H,3H)-dione] | 111 | 584 |
| O=c1[nH]cc(-c2cc(N3CC(F)(F)C4(CC4)C3)n3ncc(Cl)c3n2)c(=O)[nH]1 [Example 218, 5-(3-chloro-7-(7,7-difluoro-5-azaspiro[2.4]heptan-5-yl)pyrazolo[1,5-a]pyrimidin-5-yl)pyrimidine-2,4(1H,3H)-dione] | 3.29 | 455 |
| CC1(C)CN(c2cc(-c3c[nH]c(=O)[nH]c3=O)nc3c(F)cnn23)CC1(F)F [Example 219, 5-(7-(3,3-difluoro-4,4-dimethylpyrrolidin-1-yl)-3-fluoropyrazolo[1,5-a]pyrimidin-5-yl)pyrimidine-2,4(1H,3H)-dione] | 8.26 | 62.6 |
| CC1(C)CN(c2cc(-c3c[nH]c(=O)[nH]c3=O)nc3c(Cl)cnn23)CC1(F)F [Example 220, 5-(3-chloro-7-(3,3-difluoro-4,4-dimethylpyrrolidin-1-yl)pyrazolo[1,5-a]pyrimidin-5-yl)pyrimidine-2,4(1H,3H)-dione] | 5.34 | 114 |
| CC1CN(c2cc(-c3c[nH]c(=O)[nH]c3=O)nc3ccnn23)CC1(F)F (centres unmarked) [Example 221, 5-(7-(3,3-difluoro-4-methylpyrrolidin-1-yl)pyrazolo[1,5-a]pyrimidin-5-yl)pyrimidine-2,4(1H,3H)-dione] | 13.1 | 74.9 |
| CC1CN(c2cc(-c3c[nH]c(=O)[nH]c3=O)nc3c(F)cnn23)CC1(F)F (centres unmarked) [Example 222, 5-(7-(3,3-difluoro-4-methylpyrrolidin-1-yl)-3-fluoropyrazolo[1,5-a]pyrimidin-5-yl)pyrimidine-2,4(1H,3H)-dione] | 17.4 | 133 |
| O=c1[nH]cc(-c2cc(N3C[C@H]4CCC[C@H]4C3)c3nccn3n2)c(=O)[nH]1 [Example 223, 5-(8-((3aR,6aS)-hexahydrocyclopenta[c]pyrrol-2(1H)-yl)imidazo[1,2-b]pyridazin-6-yl)pyrimidine-2,4(1H,3H)-dione] | 31.4 | 66.4 |
| O=c1[nH]cc(-c2cc(N3CC4C(C3)C4(F)F)c3nccn3n2)c(=O)[nH]1 (centres unmarked) [Example 224, 5-(8-(6,6-difluoro-3-azabicyclo[3.1.0]hexan-3-yl)imidazo[1,2-b]pyridazin-6-yl)pyrimidine-2,4(1H,3H)-dione] | 11.9 | 32.6 |
| O=c1[nH]cc(-c2cc(N3CC4CC4C3)c3nccn3n2)c(=O)[nH]1 (centres unmarked) [Example 225, 5-(8-(3-azabicyclo[3.1.0]hexan-3-yl)imidazo[1,2-b]pyridazin-6-yl)pyrimidine-2,4(1H,3H)-dione] | 15.2 | 106 |
| O=c1[nH]cc(-c2cc(NC3CCCC3)c3nccn3n2)c(=O)[nH]1 [Example 226, 5-(8-(cyclopentylamino)imidazo[1,2-b]pyridazin-6-yl)pyrimidine-2,4(1H,3H)-dione] | 121 | 410 |
| O=c1[nH]cc(-c2cc(NC3CCC(F)(F)C3)c3nccn3n2)c(=O)[nH]1 (centres unmarked) [Example 227, 5-(8-((3,3-difluorocyclopentyl)amino)imidazo[1,2-b]pyridazin-6-yl)pyrimidine-2,4(1H,3H)-dione] | > 250 | 487 |
